According to ChEMBL document CHEMBL3632552, “Discovery of (phenoxy-2-hydroxypropyl)piperidines as a novel class of voltage-gated sodium channel 1.7 inhibitors” (Bioorg Med Chem Lett, 2015):

Assays:
[1] = biological target: Sodium channel protein type 1 subunit alpha (Homo sapiens, UniProt P35498); assay: Inhibition of human NaV1.1 by IonWorks quattro automated electrophysiology assay
[2] = biological target: Sodium channel protein type 9 subunit alpha (Homo sapiens, UniProt Q15858); assay: Inhibition of human NaV1.7 by IonWorks quattro automated electrophysiology assay
[3] = biological target: Sodium channel protein type 5 subunit alpha (Homo sapiens, UniProt Q14524); assay: Inhibition of human NaV1.5 by IonWorks quattro automated electrophysiology assay
[4] = biological target: Sodium channel protein type 9 subunit alpha (Mus musculus, UniProt Q62205); assay: Inhibition of mouse NaV1.7 by IonWorks quattro automated electrophysiology assay
[5] = biological target: Sodium channel protein type 1 subunit alpha (Mus musculus, UniProt A2APX8); assay: Inhibition of mouse NaV1.1 by IonWorks quattro automated electrophysiology assay
[6] = AUC in db/db mouse at 30 mg/kg, po; format: ADME, organism-based; details: in vivo
Mus musculus [7] = assay: Toxicity in mouse assessed as reduction of locomotor activity at 100 mg/kg, po; format: organism-based; details: in vivo
Mus musculus [8] = species: Mus musculus; assay: Analgesic activity in mouse assessed as inhibition of acetic acid-induced writhing response; format: functional
[9] = Cmax in db/db mouse at 30 mg/kg, po; format: ADME, organism-based; parameters: dose 30 mg/kg, route oral; details: in vivo
[10] = Tmax in db/db mouse at 30 mg/kg, po; format: ADME, organism-based; details: in vivo
Plasma = assay: Fraction unbound in mouse plasma; format: ADME, cell-free
[11] = Therapeutic index, ratio of toxic ID50 in mouse to analgesic activity ED50 in mouse; format: organism-based; details: in vivo, read-out: TI
Mus musculus [12] = assay: Toxicity in po dosed mouse assessed as reduction of locomotor activity; format: organism-based; details: in vivo
[13] = AUC in CD mouse at 30 mg/kg, po; format: ADME, organism-based; details: in vivo
[14] = Tmax in CD mouse at 30 mg/kg, po; format: ADME, organism-based; details: in vivo
[15] = Cmax in CD mouse at 30 mg/kg, po; format: ADME, organism-based; parameters: dose 30 mg/kg, route oral; details: in vivo

Sodium channel protein type 5 subunit alpha, sequence (Q14524 whole entry): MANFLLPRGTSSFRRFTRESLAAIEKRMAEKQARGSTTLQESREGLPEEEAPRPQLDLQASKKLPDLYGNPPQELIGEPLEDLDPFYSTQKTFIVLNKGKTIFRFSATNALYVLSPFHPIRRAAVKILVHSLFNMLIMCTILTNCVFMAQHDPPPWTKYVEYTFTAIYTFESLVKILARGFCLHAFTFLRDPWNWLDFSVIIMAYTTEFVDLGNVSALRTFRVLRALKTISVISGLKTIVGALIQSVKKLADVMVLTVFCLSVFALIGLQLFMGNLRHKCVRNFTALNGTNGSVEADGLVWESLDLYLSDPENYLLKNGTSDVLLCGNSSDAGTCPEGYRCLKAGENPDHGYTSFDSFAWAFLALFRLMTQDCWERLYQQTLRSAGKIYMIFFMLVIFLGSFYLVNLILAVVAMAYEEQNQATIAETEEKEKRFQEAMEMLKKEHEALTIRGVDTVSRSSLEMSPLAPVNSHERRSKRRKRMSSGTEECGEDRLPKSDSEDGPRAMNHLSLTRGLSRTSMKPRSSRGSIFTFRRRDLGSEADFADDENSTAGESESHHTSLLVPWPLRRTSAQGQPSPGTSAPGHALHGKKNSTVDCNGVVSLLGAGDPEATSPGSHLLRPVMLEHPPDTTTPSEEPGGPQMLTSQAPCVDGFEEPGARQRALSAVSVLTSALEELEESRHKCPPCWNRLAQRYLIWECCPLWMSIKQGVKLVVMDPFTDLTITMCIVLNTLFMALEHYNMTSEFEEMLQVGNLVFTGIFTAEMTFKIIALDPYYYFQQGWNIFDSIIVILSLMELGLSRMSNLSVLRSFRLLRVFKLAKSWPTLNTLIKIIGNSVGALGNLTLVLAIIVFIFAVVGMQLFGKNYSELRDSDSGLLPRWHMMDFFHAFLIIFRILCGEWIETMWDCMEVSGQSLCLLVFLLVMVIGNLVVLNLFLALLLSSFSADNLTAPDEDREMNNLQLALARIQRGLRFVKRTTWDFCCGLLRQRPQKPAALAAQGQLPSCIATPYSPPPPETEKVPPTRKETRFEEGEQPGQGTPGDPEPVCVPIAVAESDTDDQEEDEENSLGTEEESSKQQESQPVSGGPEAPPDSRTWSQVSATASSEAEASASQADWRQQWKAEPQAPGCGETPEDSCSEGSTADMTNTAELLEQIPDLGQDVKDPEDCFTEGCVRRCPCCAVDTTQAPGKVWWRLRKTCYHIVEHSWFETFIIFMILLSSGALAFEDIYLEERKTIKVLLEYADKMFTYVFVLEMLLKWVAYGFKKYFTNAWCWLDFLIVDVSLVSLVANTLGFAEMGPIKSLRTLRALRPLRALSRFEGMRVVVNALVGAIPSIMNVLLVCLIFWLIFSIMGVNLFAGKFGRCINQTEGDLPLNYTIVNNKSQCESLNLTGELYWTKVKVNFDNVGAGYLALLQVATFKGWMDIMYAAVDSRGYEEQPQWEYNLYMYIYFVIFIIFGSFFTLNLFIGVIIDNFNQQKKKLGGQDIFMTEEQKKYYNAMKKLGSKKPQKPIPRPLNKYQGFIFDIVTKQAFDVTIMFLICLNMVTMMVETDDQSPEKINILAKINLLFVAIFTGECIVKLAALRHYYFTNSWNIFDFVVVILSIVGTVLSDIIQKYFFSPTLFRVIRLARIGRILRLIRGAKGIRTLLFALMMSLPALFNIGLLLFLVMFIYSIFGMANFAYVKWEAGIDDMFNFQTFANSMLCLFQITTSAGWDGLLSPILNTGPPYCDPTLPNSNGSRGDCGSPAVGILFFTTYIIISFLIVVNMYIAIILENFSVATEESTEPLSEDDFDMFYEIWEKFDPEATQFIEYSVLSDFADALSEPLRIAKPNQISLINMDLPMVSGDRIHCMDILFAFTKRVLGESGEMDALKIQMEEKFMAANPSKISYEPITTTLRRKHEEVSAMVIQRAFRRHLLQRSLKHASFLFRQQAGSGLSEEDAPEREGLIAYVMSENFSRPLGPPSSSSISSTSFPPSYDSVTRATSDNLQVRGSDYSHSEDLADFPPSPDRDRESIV
Sodium channel protein type 9 subunit alpha (Mus musculus, UniProt Q62205), sequence (Q62205 whole entry): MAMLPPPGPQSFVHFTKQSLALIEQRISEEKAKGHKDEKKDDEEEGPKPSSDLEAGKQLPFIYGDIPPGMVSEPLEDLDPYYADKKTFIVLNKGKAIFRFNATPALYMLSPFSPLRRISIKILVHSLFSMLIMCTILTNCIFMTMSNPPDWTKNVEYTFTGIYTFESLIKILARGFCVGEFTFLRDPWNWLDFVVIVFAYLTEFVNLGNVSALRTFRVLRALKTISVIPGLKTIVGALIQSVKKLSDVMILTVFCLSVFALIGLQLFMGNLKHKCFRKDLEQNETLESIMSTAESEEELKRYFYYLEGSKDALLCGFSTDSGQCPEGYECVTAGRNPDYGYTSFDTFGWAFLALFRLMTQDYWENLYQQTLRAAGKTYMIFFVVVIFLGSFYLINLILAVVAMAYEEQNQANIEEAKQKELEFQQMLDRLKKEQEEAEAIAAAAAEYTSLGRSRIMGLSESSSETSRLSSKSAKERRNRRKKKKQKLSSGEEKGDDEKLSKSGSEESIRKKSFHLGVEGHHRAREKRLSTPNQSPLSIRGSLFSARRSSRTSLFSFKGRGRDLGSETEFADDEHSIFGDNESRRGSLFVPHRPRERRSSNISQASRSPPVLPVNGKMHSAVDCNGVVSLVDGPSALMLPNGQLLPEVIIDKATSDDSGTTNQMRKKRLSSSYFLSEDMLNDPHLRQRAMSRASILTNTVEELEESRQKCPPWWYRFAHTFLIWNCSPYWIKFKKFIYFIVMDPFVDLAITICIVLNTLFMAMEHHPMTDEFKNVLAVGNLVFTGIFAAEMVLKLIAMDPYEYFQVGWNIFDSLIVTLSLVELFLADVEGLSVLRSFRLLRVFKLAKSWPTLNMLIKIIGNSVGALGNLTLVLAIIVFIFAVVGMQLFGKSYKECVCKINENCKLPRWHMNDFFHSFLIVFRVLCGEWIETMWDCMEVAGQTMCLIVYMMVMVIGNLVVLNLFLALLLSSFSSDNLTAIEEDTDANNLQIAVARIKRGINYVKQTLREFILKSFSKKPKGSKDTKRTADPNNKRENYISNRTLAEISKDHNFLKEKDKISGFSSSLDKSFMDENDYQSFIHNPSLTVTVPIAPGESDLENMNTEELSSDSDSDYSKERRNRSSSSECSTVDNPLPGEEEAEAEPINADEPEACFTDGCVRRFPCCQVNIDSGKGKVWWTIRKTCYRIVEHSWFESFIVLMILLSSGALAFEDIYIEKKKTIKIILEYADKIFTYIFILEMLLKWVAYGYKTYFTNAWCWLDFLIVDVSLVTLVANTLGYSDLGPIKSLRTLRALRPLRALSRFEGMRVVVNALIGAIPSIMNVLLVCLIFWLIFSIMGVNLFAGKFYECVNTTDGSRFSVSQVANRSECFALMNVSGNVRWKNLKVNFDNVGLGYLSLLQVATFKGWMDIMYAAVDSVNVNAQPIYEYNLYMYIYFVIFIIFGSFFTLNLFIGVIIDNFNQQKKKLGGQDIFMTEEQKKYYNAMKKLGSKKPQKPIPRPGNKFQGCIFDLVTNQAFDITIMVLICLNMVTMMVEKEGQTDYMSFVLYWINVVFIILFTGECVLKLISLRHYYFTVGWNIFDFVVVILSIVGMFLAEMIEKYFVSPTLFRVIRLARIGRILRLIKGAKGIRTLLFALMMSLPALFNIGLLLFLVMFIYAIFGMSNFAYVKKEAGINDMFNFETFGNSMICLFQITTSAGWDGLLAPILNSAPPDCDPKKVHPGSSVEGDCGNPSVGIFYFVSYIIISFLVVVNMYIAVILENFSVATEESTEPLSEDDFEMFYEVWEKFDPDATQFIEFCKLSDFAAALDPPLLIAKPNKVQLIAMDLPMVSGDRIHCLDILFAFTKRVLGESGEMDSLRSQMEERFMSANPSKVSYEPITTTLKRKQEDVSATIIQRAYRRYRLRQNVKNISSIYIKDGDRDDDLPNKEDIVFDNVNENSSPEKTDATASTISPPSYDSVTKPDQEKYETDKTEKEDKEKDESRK

| Structure (SMILES) | IC50 [1] | IC50 [2] | IC50 [3] | IC50 [4] | other results |
| --- | --- | --- | --- | --- | --- |
| O=C(c1ccccc1)c1ccc(OCC(O)CN2CCC(N3Cc4ccccc4C3=O)CC2)cc1 (stereo not given) | 0.67 µM | 0.38 µM | 1.2 µM | 0.59 µM |  |
| O=C1c2ccccc2CN1C1CCN(CC(O)COc2cccc(C(F)(F)F)c2)CC1 (stereo not given) | 1.2 µM | 1 µM | 4.4 µM | 0.79 µM |  |
| O=C1c2ccccc2CN1C1CCN(CC(O)COc2ccc(C(F)(F)F)cc2)CC1 (stereo not given) | 1.8 µM | 0.5 µM | 2.8 µM | 0.1 µM |  |
| COc1cc(C(F)(F)F)ccc1OCC(O)CN1CCC(N2Cc3ccccc3C2=O)CC1 (stereo not given) | 0.91 µM | 0.48 µM | 5.6 µM | 0.33 µM |  |
| O=C1c2ccccc2CN1C1CCN(CC(O)COCc2ccc(C(F)(F)F)cc2)CC1 (stereo not given) | 3 µM | 1.1 µM | 3 µM | 1.5 µM |  |
| COc1cc(C(F)(F)F)ccc1COCC(O)CN1CCC(N2Cc3ccccc3C2=O)CC1.O=C(O)/C=C/C(=O)O (stereo not given) | 1.5 µM | 1.2 µM | 6.1 µM | 0.79 µM | IC50 [5]: 0.67 µM; AUC [6]: 1910 ng·h/mL; Activity (Mus musculus [7]): Toxic; ED50 (Mus musculus [8]): 10 mg/kg; Cmax [9]: 445 ng/mL; Tmax [10]: 30 min; Fu (Plasma): 5.55% |
| O=C(NC1CCN(CC(O)COc2ccc(C(F)(F)F)cc2)CC1)c1ccccc1 (stereo not given) | 0.8 µM | 0.7 µM | 1.1 µM | 0.4 µM |  |
| O=C(Nc1ccccc1)C1CCN(CC(O)COc2ccc(C(F)(F)F)cc2)CC1 (stereo not given) | 3.1 µM | 1 µM | 3.4 µM | 0.8 µM |  |
| COc1cc(C(F)(F)F)ccc1COCC(O)CN1CCC(C(=O)Nc2ccccc2)CC1 (stereo not given) | 3.3 µM | 1.7 µM | 16 µM | 1.3 µM | IC50 [5]: 2.4 µM; AUC [6]: 303 ng·h/mL; ED50 (Mus musculus [8]): 19 mg/kg; Cmax [9]: 161 ng/mL; selectivity ratio [11]: 5.8; Tmax [10]: 30 min; Fu (Plasma): 4.18%; ID50 (Mus musculus [12]): 111 mg/kg |
| O=C1COc2c(cccc2N2CCN(CC(O)COc3ccccc3C(=O)c3ccccc3)CC2)N1 (stereo not given) | > 33 µM | 3.9 µM | 20 µM | 5 µM |  |
| O=C1COc2c(cccc2C2CCN(CC(O)COc3ccccc3C(=O)c3ccccc3)CC2)N1 (stereo not given) | 4.4 µM | 0.78 µM | 7 µM | 2.1 µM |  |
| O=C1CCc2c(cccc2N2CCN(CC(O)COc3ccccc3C(=O)c3ccccc3)CC2)N1 (stereo not given) | 21 µM | 3.7 µM | 17 µM | 2.4 µM |  |
| O=C1CCc2c(cccc2C2CCN(CC(O)COc3ccccc3C(=O)c3ccccc3)CC2)N1 (stereo not given) | 7.1 µM | 1.3 µM | 18 µM | 16 µM |  |
| O=C(c1ccccc1)c1ccccc1OCC(O)CN1CCN(c2cccc3[nH]c(=O)oc23)CC1 (stereo not given) | > 33 µM | 24 µM | > 33 µM | 31 µM |  |
| O=C(c1ccccc1)c1ccccc1OCC(O)CN1CCC(N2C(=O)COc3ccccc32)CC1 (stereo not given) | 4.8 µM | 1.1 µM | 5.2 µM | 1.3 µM |  |
| O=C(c1ccccc1)c1ccccc1OCC(O)CN1CCC(n2c(=O)oc3ccccc32)CC1 (stereo not given) | 5.4 µM | 1.8 µM | 3.4 µM | 3.1 µM |  |
| O=C(c1ccccc1)c1ccccc1OCC(O)CN1CCC(N2C(=O)Cc3ccccc32)CC1 (stereo not given) | 26 µM | 9.4 µM | 33 µM | 5 µM |  |
| O=C(c1ccccc1)c1ccccc1OCC(O)CN1CCC(N2Cc3ccccc3C2=O)CC1 (stereo not given) | 3.3 µM | 1.5 µM | 24 µM | 1.2 µM | IC50 [5]: 3.1 µM; AUC [13]: 18 ng·h/mL; Tmax [14]: 30 min; Cmax [15]: 16 ng/mL |
| O=C(NC1CCN(CC(O)COc2ccccc2C(=O)c2ccccc2)CC1)c1ccccc1 (stereo not given) | 3.2 µM | 1.1 µM | 4.9 µM | 0.92 µM |  |
| O=C(c1ccccc1)c1ccccc1OCC(O)CN1CCC(C(=O)Nc2ccccc2)CC1 (stereo not given) | 4.3 µM | 1.2 µM | 1.9 µM | 1 µM |  |
| O=C(c1ccccc1)c1cccc(OCC(O)CN2CCC(N3Cc4ccccc4C3=O)CC2)c1 (stereo not given) | 0.92 µM | 0.9 µM | 3.7 µM | 0.96 µM | IC50 [5]: 0.69 µM; AUC [13]: 525 ng·h/mL; Tmax [14]: 30 min; Fu (Plasma): 1.99%; Cmax [15]: 169 ng/mL |
| O=C1c2ccccc2CN1C1CCN(CC(O)COc2ccccc2)CC1 (stereo not given) | 8 µM | 3.4 µM | 38 µM | 5 µM |  |
| COc1ccccc1OCC(O)CN1CCC(N2Cc3ccccc3C2=O)CC1 (stereo not given) | 19 µM | 5.3 µM | 77 µM | 4.8 µM | IC50 [5]: 34 µM; AUC [13]: 692 ng·h/mL; Tmax [14]: 30 min; ED50 (Mus musculus [8]): 7 mg/kg; selectivity ratio [11]: 2.9; ID50 (Mus musculus [12]): 20 mg/kg; Cmax [15]: 467 ng/mL |
| COc1cccc(OCC(O)CN2CCC(N3Cc4ccccc4C3=O)CC2)c1 (stereo not given) | 3 µM | 1.4 µM | 10 µM | 0.91 µM |  |
| COc1ccc(OCC(O)CN2CCC(N3Cc4ccccc4C3=O)CC2)cc1 (stereo not given) | 2.7 µM | 1.8 µM | 13 µM | 1.3 µM |  |
| O=C1c2ccccc2CN1C1CCN(CC(O)COc2ccccc2C(F)(F)F)CC1 (stereo not given) | 4.5 µM | 2.8 µM | 7.1 µM | 4.8 µM |  |
| Cc1cccc(C)c1OCC(C)N.Cl (stereo not given) [MEXILETINE HYDROCHLORIDE] | 11 µM |  |  | 11 µM | IC50 [5]: 21 µM; ED50 (Mus musculus [8]): 21 mg/kg; ID50 (Mus musculus [12]): 45 mg/kg |
